Literature values in patent US20240294879A1, “STEM CELL DIFFERENTIATION AND POLYMERS” (VERTEX PHARMACEUTICALS INCORPORATED, priority 2021, published 2024).

Target: EZH2 (Homo sapiens, UniProt Q15910)
Sequence (Q15910 whole entry, species assumed): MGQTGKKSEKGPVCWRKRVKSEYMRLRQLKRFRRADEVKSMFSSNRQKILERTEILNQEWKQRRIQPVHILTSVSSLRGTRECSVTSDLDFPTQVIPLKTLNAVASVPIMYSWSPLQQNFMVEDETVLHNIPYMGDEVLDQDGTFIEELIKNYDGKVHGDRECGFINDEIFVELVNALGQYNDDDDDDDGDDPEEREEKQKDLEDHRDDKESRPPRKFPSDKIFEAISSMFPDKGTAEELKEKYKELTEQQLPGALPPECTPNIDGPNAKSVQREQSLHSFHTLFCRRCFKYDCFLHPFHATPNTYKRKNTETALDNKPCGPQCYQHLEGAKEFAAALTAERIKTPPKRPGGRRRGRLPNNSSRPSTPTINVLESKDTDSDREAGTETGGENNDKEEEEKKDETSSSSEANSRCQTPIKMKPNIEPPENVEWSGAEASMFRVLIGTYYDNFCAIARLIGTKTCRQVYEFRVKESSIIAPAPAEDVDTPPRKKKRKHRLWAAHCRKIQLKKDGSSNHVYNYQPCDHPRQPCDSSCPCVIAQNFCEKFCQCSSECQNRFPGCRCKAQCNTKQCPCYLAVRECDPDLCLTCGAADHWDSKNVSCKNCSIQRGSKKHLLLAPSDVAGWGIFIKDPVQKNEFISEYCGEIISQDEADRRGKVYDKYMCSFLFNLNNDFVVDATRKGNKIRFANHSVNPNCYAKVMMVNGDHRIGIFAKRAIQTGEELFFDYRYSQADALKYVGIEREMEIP
Sequence (O75530 whole entry partner, species assumed): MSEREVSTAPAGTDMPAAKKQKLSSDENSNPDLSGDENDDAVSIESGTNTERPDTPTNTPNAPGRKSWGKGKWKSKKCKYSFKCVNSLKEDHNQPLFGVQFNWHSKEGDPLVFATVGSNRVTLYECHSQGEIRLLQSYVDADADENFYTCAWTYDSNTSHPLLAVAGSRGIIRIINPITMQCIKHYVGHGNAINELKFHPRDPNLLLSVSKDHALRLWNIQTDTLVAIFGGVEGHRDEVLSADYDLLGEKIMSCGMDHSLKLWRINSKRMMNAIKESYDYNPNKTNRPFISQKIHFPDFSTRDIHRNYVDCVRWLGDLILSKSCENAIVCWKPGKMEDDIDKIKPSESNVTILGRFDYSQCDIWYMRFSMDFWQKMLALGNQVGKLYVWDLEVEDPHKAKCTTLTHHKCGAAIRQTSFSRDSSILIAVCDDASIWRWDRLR
Sequence (Q15022 whole entry partner, species assumed): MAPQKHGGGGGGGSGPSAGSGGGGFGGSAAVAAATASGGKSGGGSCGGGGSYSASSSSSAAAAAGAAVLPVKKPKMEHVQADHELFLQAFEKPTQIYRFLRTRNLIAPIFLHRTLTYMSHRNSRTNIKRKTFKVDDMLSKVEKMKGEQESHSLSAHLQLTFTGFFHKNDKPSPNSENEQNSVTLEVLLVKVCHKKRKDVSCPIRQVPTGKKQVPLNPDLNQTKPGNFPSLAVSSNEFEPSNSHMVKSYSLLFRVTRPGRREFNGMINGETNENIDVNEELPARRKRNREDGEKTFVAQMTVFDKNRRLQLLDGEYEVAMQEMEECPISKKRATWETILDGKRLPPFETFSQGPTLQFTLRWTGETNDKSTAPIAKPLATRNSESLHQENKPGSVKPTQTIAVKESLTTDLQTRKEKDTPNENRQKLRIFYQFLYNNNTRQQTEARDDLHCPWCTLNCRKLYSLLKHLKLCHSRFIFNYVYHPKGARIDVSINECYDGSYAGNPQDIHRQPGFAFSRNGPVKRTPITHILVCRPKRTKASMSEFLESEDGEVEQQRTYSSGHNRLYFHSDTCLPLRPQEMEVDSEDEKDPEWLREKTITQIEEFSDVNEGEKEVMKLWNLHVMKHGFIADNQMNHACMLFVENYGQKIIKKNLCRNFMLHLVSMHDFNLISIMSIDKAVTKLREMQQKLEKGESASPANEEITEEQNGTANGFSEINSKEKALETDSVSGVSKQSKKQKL

Row | SMILES | selectivity over EZH1 (EZH2 versus EZH1) | selectivity relative to GSK126 (EZH2 inhibitor)
1 | CC[C@H](C)n1cc(C)c2c(C(=O)NCc3c(C)cc(C)[nH]c3=O)cc(-c3ccc(N4CCNCC4)nc3)cc21 [GSK126] | 150 fold | –
2 | CCCc1cc(C)[nH]c(=O)c1CNC(=O)c1cc(-c2ccc(N3CCN(C(C)C)CC3)nc2)cc2c1cnn2C(C)C [UNC1999] | – | less selective
